Where two headings read alike, the source gives them in different places.
Key:
[1] = biological target: T1, human equilibrative nucleoside transporter 1 (hENT1) (Homo sapiens, UniProt Q99808, N48Q); assay: proteoliposome competition assay with 3H-adenosine, […] reduction at […]; format: biochemical; settings: read-out: % reduction at 500 μmol/L
T1 construct: gene SLC29A1; full-length, residues 1-456
T1 sequence (Q99808 1-456 N48Q): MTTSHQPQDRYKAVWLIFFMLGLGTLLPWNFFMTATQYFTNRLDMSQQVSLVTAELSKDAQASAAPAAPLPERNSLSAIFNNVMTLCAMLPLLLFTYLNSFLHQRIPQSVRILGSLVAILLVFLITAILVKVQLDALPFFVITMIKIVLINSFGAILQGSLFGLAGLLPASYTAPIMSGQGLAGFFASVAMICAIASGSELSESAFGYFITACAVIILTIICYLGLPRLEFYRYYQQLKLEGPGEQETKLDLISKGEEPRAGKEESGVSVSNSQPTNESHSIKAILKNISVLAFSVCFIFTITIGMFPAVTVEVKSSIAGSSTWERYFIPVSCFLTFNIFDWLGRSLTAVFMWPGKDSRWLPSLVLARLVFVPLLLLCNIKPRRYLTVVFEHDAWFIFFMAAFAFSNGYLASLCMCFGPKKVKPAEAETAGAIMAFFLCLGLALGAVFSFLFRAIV

[2] = biological target: T1, human equilibrative nucleoside transporter 1 (hENT1); assay: ITC; format: binding

Row | Structure (SMILES) | inhibition at 500 µM [1] [%] | also measured
1 | Cc1cn([C@@H]2O[C@H](CO)[C@@H](O)[C@H]2O)c(=O)[nH]c1=O [5-methyluridine] | > 90 | –
2 | Nc1ncnc2nc[nH]c12 [adenine] | – | Kd [2]: 5000 ± 500 µM
3 | Nc1ncnc2c1ncn2[C@H]1C[C@H](O)[C@@H](CO)O1 [deoxyadenosine] | – | Kd ([2]; read-out: Kd): 190 ± 40 µM
4 | Nc1nc2c(ncn2[C@H]2C[C@H](O)[C@@H](CO)O2)c(=O)[nH]1 [deoxyguanosine] | > 90 | –
5 | O=c1ccn([C@H]2C[C@H](O)[C@@H](CO)O2)c(=O)[nH]1 [deoxyuridine] | > 90 | –
6 | Cc1cn([C@H]2C[C@H](O)[C@@H](CO)O2)c(=O)[nH]c1=O [thymidine] | > 90 | –
7 | O=c1ccn([C@@H]2O[C@H](CO)[C@@H](O)[C@H]2O)c(=O)[nH]1 [uridine] | > 90 | –

Source: publication PMC5359181 (Protein & Cell, 2016)
